A value given as a limit tells only on which side of the number the result lay.

Chain of Methionine aminopeptidase 2 (P50579 whole entry): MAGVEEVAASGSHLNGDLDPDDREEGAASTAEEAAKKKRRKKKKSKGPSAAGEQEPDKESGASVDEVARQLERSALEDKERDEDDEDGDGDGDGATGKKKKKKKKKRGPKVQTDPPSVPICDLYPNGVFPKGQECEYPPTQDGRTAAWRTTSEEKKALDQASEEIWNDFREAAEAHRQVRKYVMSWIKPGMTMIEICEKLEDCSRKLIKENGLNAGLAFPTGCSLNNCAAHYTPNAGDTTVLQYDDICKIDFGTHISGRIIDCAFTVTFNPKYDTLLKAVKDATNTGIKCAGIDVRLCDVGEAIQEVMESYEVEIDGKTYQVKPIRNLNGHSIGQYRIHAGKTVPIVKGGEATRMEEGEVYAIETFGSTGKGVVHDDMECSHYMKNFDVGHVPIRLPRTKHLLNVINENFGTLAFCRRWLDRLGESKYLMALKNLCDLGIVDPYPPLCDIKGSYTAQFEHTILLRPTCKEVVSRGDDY

This test addresses Methionine aminopeptidase 2 (Homo sapiens, UniProt P50579). Kind of test: Biochemical Assays. To be noted: pH 7.5. As to the method: Stock solutions for all assays were prepared in DMSO (10 mM) and stored at −20 °C. Assays were performed in 96 well plates (Greiner) at a total reaction volume of 100 μL. […] Then, the substrate Met-Gly-Met-Met was added to a final concentration of 400 μM. After an incubation period of 15 min (HsMetAP1), 20 min (EcMetAP), or 60 min (HsMetAP2) at 37 °C, the enzyme reactionwas stopped by adding 10 μL 4% trifluoroacetic acid (TFA), and the plate was centrifuged at 1000g for 10 min. Detection of the product Gly-Met-Met was performed by HPLC: C18 column (Dr. Maisch, ReproSil-Pur 120 ODS-3, 3 μm, 50 × 2 mm). An 80 μL injection volume was eluted with mobile phases A (H2O and 0.1% TFA, filtered, degasse
The compound `Cc1ccccc1Cn1nnc2c1C1(CCC2=O)CO1` (centres undefined) [3-(2-methylbenzyl)-5,6-dihydrospiro[benzo[d][1,2,3]triazole-4,2'-oxiran]-7(3H)-one (23)] yielded an IC50 of 2.3 µM.

`COc1ccc(Cn2nnc3c2C2(CCC3=O)CO2)cc1` (centres undefined) [3-(4-methoxybenzyl)-5,6-dihydrospiro[benzo[d][1,2,3]triazole-4,2'-oxiran]-7(3H)-one (14)]: the concentration for half-maximal inhibition (IC50) worked out at 0.46 µM.

On to `CC(C)NC(=O)O[C@H]1CC[C@]2(CO2)c2c1nnn2Cc1ccccc1` (relative stereo) [(2'R*,7S*)-3-benzyl-3,5,6,7-tetrahydrospiro [benzo[d][1,2,3]triazole-4,2'-oxiran]-7-yl isopropylcarbamate (30b)], for which the half-inhibitory concentration (IC50) was found to be 46 µM.

As to `O=C1CCC2(CO2)c2c1nnn2Cc1ccc(C(F)(F)F)cc1` (centres undefined) [3-(4-(trifluoromethyl)benzyl)-5,6-dihydrospiro[benzo[d][1,2,3]triazole-4,2'-oxiran]-7(3H)-one (28)], the IC50 was 0.44 µM.

Compound `C=C1CCC(OC(=O)c2ccccc2)c2nnn(Cc3ccc(OC)cc3)c21` (centres undefined) [1-[(4-methoxyphenyl)methyl]-7-methylidene-4,5,6,7-tetrahydro-1H-1,2,3-benzotriazol-4-yl benzoate (16)] came in with an IC50 greater than 50 µM.

In turn, `O=C(O[C@@H]1CC[C@]2(CO2)c2c1nnn2Cc1ccccc1)c1ccccc1` (relative stereo) [(2'R*,7R*)-3-benzyl-3,5,6,7-tetrahydrospiro [benzo[d][1,2,3]triazole-4,2'-oxiran]-7-yl benzoate (29a)] showed an IC50 of 1.4 µM.

Regarding `COc1ccc(Cn2nnc3c2[C@]2(CC[C@@H]3OC(=O)c3ccccc3)CO2)cc1` [(2'R*,7S*)-3-(4-methoxybenzyl)-3,5,6,7-tetrahydrospiro[benzo[d][1,2,3]triazole-4,2'-oxiran]-7-yl benzoate (17b)], the half-inhibitory concentration (IC50) was 35 µM.

`COc1ccc(Cn2nnc3c2[C@]2(CC[C@H]3OC(=O)NCC(C)C)CO2)cc1` (relative stereo) [(2'R*,7R*)-3-(4-methoxybenzyl)-3,5,6,7-tetrahydrospiro[benzo[d][1,2,3]triazole-4,2'-oxiran]-7-yl isobutylcarbamate (32)] gave an IC50 of 0.6 µM.

For the compound `O=C1CCC2(CO2)c2c1nnn2Cc1ccc2ccccc2c1` (centres undefined) [3-(naphthalen-2-ylmethyl)-5,6-dihydrospiro[benzo[d][1,2,3]triazole-4,2'-oxiran]-7(3H)-one (25)], the IC50 worked out at 0.59 µM.

As for `O=C1CCC2(CO2)c2c1nnn2Cc1ccc(F)cc1` (centres undefined) [3-(4-fluorobenzyl)-5,6-dihydrospiro[benzo[d][1,2,3]triazole-4,2'-oxiran]-7(3H)-one (26)], the IC50 came out at 0.25 µM.

As to `COc1ccc(Cn2nnc3c2[C@]2(CC[C@H]3OC(=O)c3ccccc3)CO2)cc1` [(2'R*,7R*)-3-(4-methoxybenzyl)-3,5,6,7-tetrahydrospiro[benzo[d][1,2,3]triazole-4,2'-oxiran]-7-yl benzoate (17a)], the half-inhibitory concentration (IC50) was 0.93 µM.

For the compound `O=C1CCC2(CO2)c2c1nnn2CC1CCCCC1` (centres undefined) [3-(cyclohexylmethyl)-5,6-dihydrospiro[benzo[d][1,2,3]triazole-4,2'-oxiran]-7(3H)-one (21)], the concentration for half-maximal inhibition (IC50) is greater than 50 µM.

Compound `CC(C)NC(=O)O[C@@H]1CC[C@]2(CO2)c2c1nnn2Cc1ccccc1` (relative stereo) [(2'R*,7R*)-3-benzyl-3,5,6,7-tetrahydrospiro [benzo[d][1,2,3]triazole-4,2'-oxiran]-7-yl isopropylcarbamate (30a)] gave an IC50 of 0.78 µM.

In turn, `COc1ccc(Cn2nnc3c2[C@]2(CC[C@H]3OC(=O)Nc3ccccc3)CO2)cc1` (relative stereo) [(2'R*,7R*)-3-(4-methoxybenzyl)-3,5,6,7-tetrahydrospiro[benzo[d][1,2,3]triazole-4,2'-oxiran]-7-yl phenylcarbamate (34)] displayed an IC50 of 0.99 µM.

Compound `O=C(O[C@H]1CC[C@]2(CO2)c2c1nnn2Cc1ccccc1)c1ccccc1` (relative stereo) [(2'R*,7S*)-3-benzyl-3,5,6,7-tetrahydrospiro [benzo[d][1,2,3]triazole-4,2'-oxiran]-7-yl benzoate (29b)] registered an IC50 greater than 50 µM.

Regarding `O=C1CCC2(CO2)c2c1nnn2Cc1ccccc1` (centres undefined) [3-benzyl-5,6-dihydrospiro[benzo[d][1,2,3]triazole-4,2'-oxiran]-7(3H)-one (22)], the 50% inhibitory concentration (IC50) was 2.9 µM.

Consider `COc1ccc(Cn2nnc3c2[C@]2(CC[C@H]3NC(=O)OCC(C)C)CO2)cc1` [isobutyl ((2'R*,7R*)-3-(4-methoxybenzyl)-3,5,6,7-tetrahydrospiro[benzo[d][1,2,3]triazole-4,2'-oxiran]-7-yl)carbamate (35)], for which the 50% inhibitory concentration (IC50) amounted to 0.6 µM.

With `O=C1CCC2(CO2)c2c1nnn2Cc1ccc(Cl)cc1` (centres undefined) [3-(4-chlorobenzyl)-5,6-dihydrospiro[benzo[d][1,2,3]triazole-4,2'-oxiran]-7(3H)-one (27)], the IC50 was 0.52 µM.

In the case of `N#Cc1cccc(Cn2nnc3c2C2(CCC3=O)CO2)c1` (centres undefined) [3-((7-oxo-6,7-dihydrospiro[benzo[d][1,2,3]triazole-4,2'-oxiran]-3(5H)-yl)methyl)benzonitrile (24)], the IC50 was 1.1 µM.

For orientation: IC50 means the concentration needed to halve the response being measured. A low value points to greater potency.

Values taken from BindingDB's records for doi:10.1021/acschembio.5b00755 (German Cancer Research Center (Dkfz), 2016).
